The source of these data is patent US9328106B2, “Cyclic ether pyrazol-4-yl-heterocyclyl-carboxamide compounds and methods of use” (Genentech, Inc., priority 2012, dated 2016).

pKi: −log10 of the molar value.

For this test, the target named is PIM1 (Homo sapiens (Human), UniProt P11309). Briefly: biochemical. It is filed as biochemical. Conditions: 20 pM PIM1, 1 μM FAM-peptide, 10 μM ATP, 90 minutes at room temperature; read-out: PIM1 LC3K (KI).
Chain of PIM1 (P11309 whole entry): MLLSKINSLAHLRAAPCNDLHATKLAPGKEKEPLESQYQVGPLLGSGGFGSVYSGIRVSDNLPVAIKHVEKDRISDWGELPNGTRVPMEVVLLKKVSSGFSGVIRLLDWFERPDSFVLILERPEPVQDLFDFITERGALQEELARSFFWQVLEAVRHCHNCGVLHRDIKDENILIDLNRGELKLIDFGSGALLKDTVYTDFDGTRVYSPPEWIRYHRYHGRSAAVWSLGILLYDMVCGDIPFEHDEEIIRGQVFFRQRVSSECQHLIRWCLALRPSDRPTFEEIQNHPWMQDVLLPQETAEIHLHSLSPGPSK
One may read the pKi as the Ki on a negative log10 scale, so that one unit is a factor of ten. As for `Cn1ncc(NC(=O)c2ccc(F)c(-c3c(F)cc(OC4CCOCC4)cc3F)n2)c1[C@@H]1CC[C@@H](N)[C@H](F)CO1` [Example 197, N-(5-((2S,5R,6S)-5-Amino-6-fluorooxepan-2-yl)-1-methyl-1H-pyrazol-4-yl)-6-(2,6-difluoro-4-((tetrahydro-2H-pyran-4-yl)oxy)phenyl)-5-fluoropicolinamide], the pKi was 10.74.
Regarding `Cn1ncc(NC(=O)c2ccc(F)c(-c3c(F)cc(C4(O)CCC4)cc3F)n2)c1[C@@H]1CC[C@@H](N)[C@H](F)CO1` [Example 198, N-(5-((2S,5R,6S)-5-amino-6-fluorooxepan-2-yl)-1-methyl-1H-pyrazol-4-yl)-6-(2,6-difluoro-4-(1-hydroxycyclobutyl)phenyl)-5-fluoropicolinamide], the pKi is 10.68.
For `COCc1cc(F)c(-c2nc(C(=O)Nc3cnn(C)c3[C@@H]3CC[C@@H](N)[C@H](F)CO3)ccc2F)c(F)c1` [Example 199, N-(5-((2S,5R,6S)-5-amino-6-fluorooxepan-2-yl)-1-methyl-1H-pyrazol-4-yl)-6-(2,6-difluoro-4-(methoxymethyl)phenyl)-5-fluoropicolinamide] the value was 10.51.
As for `Cn1ncc(NC(=O)c2ccc(F)c(-c3c(F)cc(C(C)(C)O)cc3F)n2)c1[C@@H]1CC[C@@H](N)[C@H](F)CO1` [Example 200, N-(5-((2S,5R,6S)-5-amino-6-fluorooxepan-2-yl)-1-methyl-1H-pyrazol-4-yl)-6-(2,6-difluoro-4-(2-hydroxypropan-2-yl)phenyl)-5-fluoropicolinamide], the pKi is 10.96.
With `COc1cc(F)c(-c2nc(C(=O)Nc3cnn(C)c3[C@@H]3CC[C@@H](N)[C@H](F)CO3)ccc2F)c(F)c1` [Example 201, N-(5-((2S,5R,6S)-5-amino-6-fluorooxepan-2-yl)-1-methyl-1H-pyrazol-4-yl)-6-(2,6-difluoro-4-methoxyphenyl)-5-fluoropicolinamide], the pKi was 10.72.
As to `COC1(c2cc(F)c(-c3nc(C(=O)Nc4cnn(C)c4[C@@H]4CC[C@@H](N)[C@H](F)CO4)ccc3F)c(F)c2)COC1` [Example 202, N-(5-((2S,5R,6S)-5-amino-6-fluorooxepan-2-yl)-1-methyl-1H-pyrazol-4-yl)-6-(2,6-difluoro-4-(3-methoxyoxetan-3-yl)phenyl)-5-fluoropicolinamide], the pKi was 10.25.
For `COC1(c2cc(F)c(-c3nc(C(=O)Nc4cnn(C)c4[C@@H]4CC[C@@H](N)[C@@H](F)CO4)ccc3F)c(F)c2)COC1` [Example 203, N-(5-((2S,5R,6R)-5-amino-6-fluorooxepan-2-yl)-1-methyl-1H-pyrazol-4-yl)-6-(2,6-difluoro-4-(3-methoxyoxetan-3-yl)phenyl)-5-fluoropicolinamide] the value was 9.92; for `Cn1ncc(NC(=O)c2ccc(F)c(-c3c(F)cc(C4(O)CC4)cc3F)n2)c1[C@@H]1CC[C@@H](N)[C@H](F)CO1` [Example 204, N-(5-((2S,5R,6S)-5-amino-6-fluorooxepan-2-yl)-1-methyl-1H-pyrazol-4-yl)-6-(2,6-difluoro-4-(1-hydroxycyclopropyl)phenyl)-5-fluoropicolinamide], 12.00.
With `CCC(=O)c1cc(F)c(-c2nc(C(=O)Nc3cnn(C)c3[C@@H]3CC[C@@H](N)[C@H](F)CO3)ccc2F)c(F)c1` [Example 205, N-(5-((2S,5R,6S)-5-amino-6-fluorooxepan-2-yl)-1-methyl-1H-pyrazol-4-yl)-6-(2,6-difluoro-4-propionylphenyl)-5-fluoropicolinamide], the pKi was 10.47.
For `Cn1ncc(NC(=O)c2ccc(F)c(-c3c(F)cc(C4(F)CCOCC4)cc3F)n2)c1[C@@H]1CC[C@@H](N)[C@H](F)CO1` [Example 206, N-(5-((2S,5R,6S)-5-amino-6-fluorooxepan-2-yl)-1-methyl-1H-pyrazol-4-yl)-6-(2,6-difluoro-4-(4-fluorotetrahydro-2H-pyran-4-yl)phenyl)-5-fluoropicolinamide] the value was 10.80.
Consider `CC(O)c1cc(F)c(-c2nc(C(=O)Nc3cnn(C)c3[C@@H]3CC[C@@H](N)[C@H](F)CO3)ccc2F)c(F)c1` (stereo partly drawn) [Example 207, N-(5-((2S,5R,6S)-5-amino-6-fluorooxepan-2-yl)-1-methyl-1H-pyrazol-4-yl)-6-(2,6-difluoro-4-(1-hydroxyethyl)phenyl)-5-fluoropicolinamide], for which the pKi was 10.77.
`Cn1ncc(NC(=O)c2ccc(F)c(-c3c(F)cc(O)cc3F)n2)c1[C@@H]1CC[C@@H](N)[C@H](F)CO1` [Example 208, N-(5-((2S,5R,6S)-5-amino-6-fluorooxepan-2-yl)-1-methyl-1H-pyrazol-4-yl)-6-(2,6-difluoro-4-hydroxyphenyl)-5-fluoropicolinamide]: the pKi was 10.92.
Take `Cn1ncc(NC(=O)c2ccc(F)c(-c3c(F)cc(OCCO)cc3F)n2)c1[C@@H]1CC[C@@H](N)[C@H](F)CO1` [Example 209, N-(5-((2S,5R,6S)-5-Amino-6-fluorooxepan-2-yl)-1-methyl-1H-pyrazol-4-yl)-6-(2,6-difluoro-4-(2-hydroxyethoxy)phenyl)-5-fluoropicolinamide]: the pKi is 10.80.
Regarding `CC(O)c1cc(F)c(-c2nc(C(=O)Nc3cnn(C)c3[C@@H]3CC[C@@H](N)[C@@H](F)CO3)ccc2F)c(F)c1` (stereo partly drawn) [Example 210, N-(5-((2S,5R,6R)-5-amino-6-fluorooxepan-2-yl)-1-methyl-1H-pyrazol-4-yl)-6-(2,6-difluoro-4-(1-hydroxyethyl)phenyl)-5-fluoropicolinamide], the pKi is 10.28.
Turning to `COC(C)c1cc(F)c(-c2nc(C(=O)Nc3cnn(C)c3[C@@H]3CC[C@@H](N)[C@@H](F)CO3)ccc2F)c(F)c1` (stereo partly drawn) [Example 211, N-(5-((2S,5R,6R)-5-amino-6-fluorooxepan-2-yl)-1-methyl-1H-pyrazol-4-yl)-6-(2,6-difluoro-4-(1-methoxyethyl)phenyl)-5-fluoropicolinamide], the pKi was 10.43.
On to `Cn1ncc(NC(=O)c2ccc(F)c(-c3c(F)cc(C(O)(CO)CO)cc3F)n2)c1[C@@H]1CC[C@@H](N)[C@@H](F)CO1` [Example 212, N-(5-((2S,5R,6R)-5-amino-6-fluorooxepan-2-yl)-1-methyl-1H-pyrazol-4-yl)-6-(2,6-difluoro-4-(1,2,3-trihydroxypropan-2-yl)phenyl)-5-fluoropicolinamide], for which the pKi is 9.79.
Take `COC(c1cc(F)c(-c2nc(C(=O)Nc3cnn(C)c3[C@@H]3CC[C@@H](N)[C@H](F)CO3)ccc2F)c(F)c1)C1CC1` (stereo partly drawn) [Example 213, N-(5-((2S,5R,6S)-5-amino-6-fluorooxepan-2-yl)-1-methyl-1H-pyrazol-4-yl)-6-(4-(cyclopropyl(methoxy)methyl)-2,6-difluorophenyl)-5-fluoropicolinamide]: the pKi is 10.11.
`Cn1ncc(NC(=O)c2ccc(F)c(-c3c(F)cc(C(CO)CO)cc3F)n2)c1[C@@H]1CC[C@@H](N)[C@H](F)CO1` [Example 214, N-(5-((2S,5R,6S)-5-amino-6-fluorooxepan-2-yl)-1-methyl-1H-pyrazol-4-yl)-6-(4-(1,3-dihydroxypropan-2-yl)-2,6-difluorophenyl)-5-fluoropicolinamide]: the pKi is 10.12.
Then `Cn1ncc(NC(=O)c2csc(-c3c(F)cc(C4(O)CCOC4)cc3F)n2)c1[C@@H]1CC[C@@H](N)[C@H](F)CO1` (stereo partly drawn) [Example 215, N-(5-((2S,5R,6S)-5-amino-6-fluorooxepan-2-yl)-1-methyl-1H-pyrazol-4-yl)-2-(2,6-difluoro-4-(3-hydroxytetrahydrofuran-3-yl)phenyl)thiazole-4-carboxamide], with 11.12.
